The source of these data is patent publication US6872414B1, “Anhydrous lactitol crystals, a product containing the same and a process for the preparation thereof as well as use thereof” (Xyrofin Oy, priority 1999, dated 2005).

Data set [1] in a line: Hygroscopicity / water sorption of lactitol crystals. It counts as physicochemical. As for the experimental part:
The water sorption of a sample of β crystals was less than about 0.3% of water in 45 days even when the relative humidity of the ambient air was 75% at 40° C.

Data set [2] is described as follows: Storability of crystals at room temperature. The class given is physicochemical. As to conditions: room temperatures, relative humidity below 60%. An excerpt: The new crystalline orthorhombic anhydrous lactitol β has a good flowability and storability, since it is stable at room temperatures, the relative humidity being below 60%.
Data set [3] in a line: Crystal form after milling (DSC, X-ray powder diffraction). As to conditions: laboratory hammer mill, 10 g/min, 600 rpm. It counts as physicochemical. How it is done:
Good quality anhydrous β lactitol crystals (lactitol assay 99.9%, enthalpy 169.4±0.5 J/g) was milled with a small laboratory hammer mill (Culatti). The feed rate was 10 g/min and the hammer speed 600 rpm. Fine lactitol particles were obtained.

The conditions of data set [4]: prior art reports; cited from earlier work.

SMILES strings stand for the structures. Read-outs that look alike come from different tables or passages of the source.

In the case of `OC[C@@H](O)[C@@H](O[C@@H]1O[C@H](CO)[C@H](O)[C@H](O)[C@H]1O)[C@H](O)[C@@H](O)CO` [anhydrous lactitol β, lactitol], the hygroscopicity entry is listed as “very low hygroscopicity” in data set [1]; “very low hygroscopicity” in data set [1] (25° C. and 60% relative humidity); “very low hygroscopicity” in data set [1] (40° C. and 75% relative humidity). In addition, the water sorption result in data set [1] (40° C., 75% relative humidity, 45 days) was “less than 0.3%”. Also, in data set [2], the stability / storability entry is on record as “stable”. Besides, in data set [3], the “crystal form after milling” value is on record as “still in the anhydrous β form”.
Regarding `OC[C@@H](O)[C@@H](O[C@@H]1O[C@H](CO)[C@H](O)[C@H](O)[C@H]1O)[C@H](O)[C@@H](O)CO` [lactitol anhydride], the hygroscopicity result in data set [4] is recorded as “highly hygroscopic”.
Consider `OC[C@@H](O)[C@@H](O[C@@H]1O[C@H](CO)[C@H](O)[C@H](O)[C@H]1O)[C@H](O)[C@@H](O)CO` [A1 anhydrous lactitol, lactitol], for which the hygroscopicity entry in data set [4] is listed as “hygroscopic”.
With `OC[C@@H](O)[C@@H](O[C@@H]1O[C@H](CO)[C@H](O)[C@H](O)[C@H]1O)[C@H](O)[C@@H](O)CO` [α lactitol, lactitol], the hygroscopicity result in data set [4] is “low hygroscopicity”.
